Active and inactive are the calls of the source. The calls are words filed in the database; no cut-off is given here.
Experiments:
Mus musculus [1] = experiment: Anti-inflammatory activity against MOG35-55-induced experimental autoimmune encephalomyelitis C57BL/6 mouse model assessed as methylation of CpG sites of TGFB1 gene promoter in brain at 600 mg/kg, ig for 14 days starting from 12th day of immunization by PCR analysis (reference value: 18.3 +/-4%); type: functional; settings: time 14 day
Mus musculus [2] = experiment: Anti-inflammatory activity against MOG35-55-induced experimental autoimmune encephalomyelitis C57BL/6 mouse model assessed as fold change in APP gene expression in brain at 300 mg/kg/day, ig for 14 days starting from 12th day of immunization by RT-qPCR analysis relative to control; type: functional; settings: time 14 day
Mus musculus [3] = experiment: Anti-inflammatory activity against MOG35-55-induced experimental autoimmune encephalomyelitis C57BL/6 mouse model assessed as upregulation of MBP protein expression in brain at 300 to 600 mg/kg/day, ig for 14 days starting from 12th day of immunization by western blot analysis relative to control; type: functional; settings: dose 300-600 mg/kg/day, time 14 day
Mus musculus [4] = experiment: Anti-inflammatory activity against MOG35-55-induced experimental autoimmune encephalomyelitis C57BL/6 mouse model assessed as fold change in CD4 gene expression in brain at 600 mg/kg/day, ig for 14 days starting from 12th day of immunization by RT-qPCR analysis relative to control; type: functional; settings: time 14 day
Mus musculus [5] = experiment: Anti-inflammatory activity against MOG35-55-induced experimental autoimmune encephalomyelitis C57BL/6 mouse model assessed as reduction in IL-6 protein expression in brain at 300 to 600 mg/kg/day, ig for 14 days starting from 12th day of immunization by western blot analysis; type: functional, organism-based; settings: dose 300-600 mg/kg/day, time 14.0 day
Mus musculus [6] = experiment: Anti-inflammatory activity against MOG35-55-induced experimental autoimmune encephalomyelitis C57BL/6 mouse model assessed as reduction in serum Th1 cytokine level by measuring reduction in IL-2 level at 600 mg/kg/day, ig for 14 days starting from 12th day of immunization by ELISA; type: functional, organism-based; settings: time 14.0 day
Mus musculus [7] = experiment: Anti-inflammatory activity against MOG35-55-induced experimental autoimmune encephalomyelitis C57BL/6 mouse model assessed as fold change in IL6 gene expression in brain at 600 mg/kg/day, ig for 14 days starting from 12th day of immunization by RT-qPCR analysis relative to control; type: functional; settings: time 14 day
Mus musculus [8] = experiment: Anti-inflammatory activity against MOG35-55-induced experimental autoimmune encephalomyelitis C57BL/6 mouse model assessed as fold change in GFAP gene expression in brain at 600 mg/kg/day, ig for 14 days starting from 12th day of immunization by RT-qPCR analysis relative to control; type: functional; settings: time 14 day
Mus musculus [9] = experiment: Anti-inflammatory activity against MOG35-55-induced experimental autoimmune encephalomyelitis C57BL/6 mouse model assessed as fold change in TNF-alpha gene expression in brain at 300 mg/kg/day, ig for 14 days starting from 12th day of immunization by RT-qPCR analysis relative to control; type: functional; settings: time 14 day
Mus musculus [10] = experiment: Anti-inflammatory activity against MOG35-55-induced experimental autoimmune encephalomyelitis C57BL/6 mouse model assessed as fold change in CXCL9 gene expression in brain at 600 mg/kg/day, ig for 14 days starting from 12th day of immunization by RT-qPCR analysis relative to control; type: functional; settings: time 14 day
Mus musculus [11] = experiment: Anti-inflammatory activity against MOG35-55-induced experimental autoimmune encephalomyelitis C57BL/6 mouse model assessed as reduction in serum chemokines level by measuring reduction in FASL level at 600 mg/kg/day, ig for 14 days starting from 12th day of immunization by ELISA; type: functional, organism-based; settings: time 14.0 day
Mus musculus [12] = experiment: Anti-inflammatory activity against MOG35-55-induced experimental autoimmune encephalomyelitis C57BL/6 mouse model assessed as fold change in MAG gene expression in brain at 600 mg/kg/day, ig for 14 days starting from 12th day of immunization by RT-qPCR analysis relative to control; type: functional; settings: time 14 day
Mus musculus [13] = experiment: Anti-inflammatory activity against MOG35-55-induced experimental autoimmune encephalomyelitis C57BL/6 mouse model assessed as fold change in CCL5 gene expression in brain at 0.3 mg/kg/day, ig for 14 days starting from 12th day of immunization by RT-qPCR analysis relative to control; type: functional; settings: time 14 day
Mus musculus [14] = experiment: Anti-inflammatory activity against MOG35-55-induced experimental autoimmune encephalomyelitis C57BL/6 mouse model assessed as fold change in MAG gene expression in brain at 0.15 mg/kg/day, ig for 14 days starting from 12th day of immunization by RT-qPCR analysis relative to control; type: functional; settings: time 14 day
Mus musculus [15] = experiment: Anti-inflammatory activity against MOG35-55-induced experimental autoimmune encephalomyelitis C57BL/6 mouse model assessed as fold change in CD4 gene expression in brain at 0.3 mg/kg/day, ig for 14 days starting from 12th day of immunization by RT-qPCR analysis relative to control; type: functional; settings: time 14 day
Mus musculus [16] = experiment: Anti-inflammatory activity against MOG35-55-induced experimental autoimmune encephalomyelitis C57BL/6 mouse model assessed as fold change in YWHAH gene expression in brain at 0.3 mg/kg/day, ig for 14 days starting from 12th day of immunization by RT-qPCR analysis relative to control; type: functional; settings: time 14 day
Mus musculus [17] = experiment: Anti-inflammatory activity against MOG35-55-induced experimental autoimmune encephalomyelitis C57BL/6 mouse model assessed as reduction in serum […] cytokine level by measuring reduction in IL-17 level at 0.3 mg/kg/day, ig for 14 days starting from 12th day of immunization by ELISA; type: functional, organism-based; settings: time 14.0 day
Mus musculus [18] = experiment: Anti-inflammatory activity against MOG35-55-induced experimental autoimmune encephalomyelitis C57BL/6 mouse model assessed as fold change in HIF1A gene expression in brain at 0.3 mg/kg/day, ig for 14 days starting from 12th day of immunization by RT-qPCR analysis relative to control; type: functional; settings: time 14 day
Mus musculus [19] = experiment: Anti-inflammatory activity against MOG35-55-induced experimental autoimmune encephalomyelitis C57BL/6 mouse model assessed as methylation of CpG sites of IL17A gene promoter in brain at […], ig for 14 days starting from 12th day of immunization by PCR analysis (reference value: 58 +/-6%); type: functional; settings: time 14 day
Mus musculus [20] = experiment: Anti-inflammatory activity against MOG35-55-induced experimental autoimmune encephalomyelitis C57BL/6 mouse model assessed as methylation of CpG sites of IL11 gene promoter in brain at […], ig for 14 days starting from 12th day of immunization by PCR analysis (reference value: 61.1 +/-4%); type: functional; settings: time 14 day
Mus musculus [21] = experiment: Anti-inflammatory activity against MOG35-55-induced experimental autoimmune encephalomyelitis C57BL/6 mouse model assessed as fold change in MBP gene expression in brain at 0.15 mg/kg/day, ig for 14 days starting from 12th day of immunization by RT-qPCR analysis relative to control; type: functional; settings: time 14 day
Mus musculus [22] = experiment: Anti-inflammatory activity against MOG35-55-induced experimental autoimmune encephalomyelitis C57BL/6 mouse model assessed as fold change in PLP gene expression in brain at 0.15 mg/kg/day, ig for 14 days starting from 12th day of immunization by RT-qPCR analysis relative to control; type: functional; settings: time 14 day
Mus musculus [23] = experiment: Anti-inflammatory activity against MOG35-55-induced experimental autoimmune encephalomyelitis C57BL/6 mouse model assessed as fold change in BCL2 gene expression in brain at 0.15 mg/kg/day, ig for 14 days starting from 12th day of immunization by RT-qPCR analysis relative to control; type: functional; settings: time 14 day

## CCCCCCCCCCCCCCCCCCCCCCCCC(=O)O[C@H]1CC[C@]2(C)[C@H]3CC=C4[C@@H]5CC(C)(C)CC[C@]5(CO)CC[C@@]4(C)[C@]3(C)CC[C@H]2C1(C)C
Mus musculus [1]
  Activity: 39.8%
Mus musculus [2]
  fold change (FC): -1.56
Mus musculus [3]
  fold change (FC): 2
Mus musculus [4]
  fold change (FC): 1.55
Mus musculus [5]
  Activity: Active
Mus musculus [6]
  Activity: Active
Mus musculus [7]
  fold change (FC): -2.32
Mus musculus [8]
  fold change (FC): 1.79
Mus musculus [9]
  fold change (FC): 1.76
Mus musculus [10]
  fold change (FC): -1.14
Mus musculus [11]
  Activity: Active
Mus musculus [12]
  fold change (FC): -1.18

## CCCCCCCCc1ccc(CCC(N)(CO)CO)cc1 [FINGOLIMOD]
Mus musculus [13]
  fold change (FC): -1.06
Mus musculus [14]
  fold change (FC): -1.85
Mus musculus [15]
  fold change (FC): 2.12
Mus musculus [16]
  fold change (FC): -1.26
Mus musculus [17]
  Activity: Active
Mus musculus [18]
  fold change (FC): 1.86
Mus musculus [19]
  Activity: 58.9%
Mus musculus [20]
  Activity: 36.2%
Mus musculus [21]
  fold change (FC): -1.1
Mus musculus [22]
  fold change (FC): 1.54
Mus musculus [23]
  fold change (FC): 2.24
